Reference: article PMC7859889 (ACS chemical biology, 2020)
“Also recorded” adds a separate entry of the source. Where a name gives a salt, the structure may show the parent alone. Read-outs that look alike come from different tables or passages of the source.

Columns and labels:
HLA and ISG genes = assay: Multi Gene RT-qPCR, gene panel; format: cell-based, human; conditions: 4.0 ng/ml IFN-β plus 50 uM compound, 24 hrs; for effect on HLA and ISG gene expression (in words): C25cl48 cells
HLA-ABC = HLA-ABC immunofluorescence; format: cell-based, human; conditions: for Emax / IC50: Homo sapiens; for Emax: read-out: Immunofluorescence Efficacy
[1] = tested on: HLA-B HiBit (MHC class I); assay: HLA-B HiBit luminescent reporter assay; conditions: for HiBit Efficacy: 4.0 ng/ml IFN-β, IFN-β = 0%, DMSO alone = −100% activity; for Emax: read-out: HiBit Efficacy
ISG15 = assay: Multi Gene RT-qPCR, ISG15; format: cell-based, human; conditions: compared to IFN-β treated cells; 4.0 ng/ml IFN-β plus 50 uM compound, 24 hrs
[2] = tested on: type I IFN – MHC class I pathway; assay: Average / all assays; format: cell-based, human; conditions: for IC50: read-out: Average IC50; for hill slope: concentration-response curves
C25cl48 cells = assay: IF cell count cytotoxicity; format: cell-based, human; conditions: for Cell count Curve class: IF cell count cytotoxicity
HLA-B mRNA = assay: HLA-B RT-qPCR tertiary assay; format: cell-based, human; conditions: for IC50: read-out: RT-qPCR IC50; for Emax: read-out: RT-qPCR Efficacy
IFIT1 = assay: Multi Gene RT-qPCR, IFIT1; format: cell-based, human; conditions: compared to IFN-β treated cells; 4.0 ng/ml IFN-β plus 50 uM compound, 24 hrs
HLA-B HiBit cells = assay: CellTiter-Glo; conditions: for CTG Efficacy: IFN-β = 0%, 92 uM Digitonin = −100% activity; for IC50: read-out: CTG IC50
STAT1 = assay: Western blot, STAT1 phosphorylation; format: cell-based, human; conditions: C25cl48 cells, 0.5 hrs, 4.0 ng/ml IFN-β plus IC95 concentration of compound
MX1 = assay: Multi Gene RT-qPCR, MX1; format: cell-based, human; conditions: compared to IFN-β treated cells; 4.0 ng/ml IFN-β plus 50 uM compound, 24 hrs
HLA-C = assay: Multi Gene RT-qPCR, HLA-C; format: cell-based, human; conditions: compared to IFN-β treated cells; 4.0 ng/ml IFN-β plus 50 uM compound, 24 hrs
[3] = cited from earlier work
[4] = cited from earlier work; remark: listed apart in the source
[5] = 37.5 and 50 mg b.i.d. ref 43, 44; cited from earlier work
HLA-A = assay: Multi Gene RT-qPCR, HLA-A; format: cell-based, human; conditions: 4.0 ng/ml IFN-β plus 50 uM compound, 24 hrs
[6] = tested on: IL-6 stimulation of whole blood; conditions: IL-6 stimulation of whole blood ref 20; cited from earlier work
[7] = HLA-ABC+ C25cl48 cells, IFN-β-stimulated, prednisolone acetate used for IF
[8] = HLA-B HiBit clone AB-7 cells, 24 hours
[9] = read-out: HiBit IC50, HLA-B HiBit clone AB-7 cells, 4.0 ng/ml IFN-β plus compound titration, 24 hours
[10] = average of HiBit, Immunofluorescence, RT-qPCR
[11] = HLA-B mRNA, C25cl48 cells, 4.0 ng/mL IFN-β
[12] = cytotoxicity, 4.0 ng/ml IFN-β, 24 hours
[13] = read-out: Immunofluorescence IC50
[14] = compared to IFN-β treated cells

| SMILES | efficacy in reducing all HLA and ISG genes (HLA and ISG genes) | effect on HLA and ISG gene expression (in words) (HLA and ISG genes) | HiBit Efficacy [1, 8] | Cell count Curve class (C25cl48 cells; C25cl48 cells) | CTG Curve class (HLA-B HiBit cells; [12]) | Emax (HLA-ABC) | Emax (HLA-B mRNA; Homo sapiens) | IC50 (HLA-ABC; [13]) | Emax ([1]; Homo sapiens, 24 h) | IC50 ([2]; Homo sapiens) | IC50 (HLA-B mRNA; Homo sapiens) | other results |
| --- | --- | --- | --- | --- | --- | --- | --- | --- | --- | --- | --- | --- |
| Cc1sc2c(c1C)C(c1ccc(Cl)cc1)=N[C@@H](CC(=O)Nc1ccc(OCCOCCOCCOCCNc3cccc4c3C(=O)N(C3CCC(=O)NC3=O)C4=O)cc1)c1nnc(C)n1-2 (stereo partly shown) [ARV-825] | low efficacy | reduced IFIT1 while increasing ISG15 | 71% | 4 | −1b |  |  |  |  |  |  | Immunofluorescence Efficacy (HLA-ABC; [7]): 82%; IC50 [1, 9]: 0.097 µM; increase of ISG15 mRNA (ISG15): 2.8 fold; Average Curve class [2, 10]: −1b; Average Efficacy [2, 10]: 65%; IC50 [2, 10]: 0.084 µM; RT-qPCR Curve class (HLA-B mRNA; [11]): −1b; RT-qPCR Efficacy (HLA-B mRNA; [11]): 43%; IC50 (HLA-B mRNA; [11]): 0.065 µM; decrease of IFIT1 mRNA (IFIT1): 84%; CTG Efficacy (HLA-B HiBit cells; cytotoxicity): 8%; IC50 (HLA-B HiBit cells; [12]): 0.053 µM |
| CCS(=O)(=O)N1CC(CC#N)(n2cc(-c3ncnc4[nH]ccc34)cn2)C1 [Baricitinib, baricitinib] |  |  | 100% | 4 | 4 | 100% | 100% |  |  |  |  | phosphorylation of STAT1 (STAT1): prevented phosphorylation of STAT1 |
| COc1ccc(-c2nc(N3CCOCC3)c3sc(CN(C)c4ncc(C(=O)NO)cn4)cc3n2)cn1 [CUDC-907] | 70–80% | reduced 3 genes |  | −3 | −1b | 100% | 73% | 0.0058 µM | 86% | 0.019 µM | 0.023 µM | decrease of MX1 mRNA (MX1): ~ 75%; decrease of HLA-C mRNA (HLA-C): ~ 75%; Cell count Efficacy at highest concentration (C25cl48 cells): (10) %; decrease of IFIT1 mRNA (IFIT1): ~ 75%; IC50 (HLA-B HiBit cells; Homo sapiens, 24 h): 3.5 µM; CTG Efficacy (HLA-B HiBit cells; cytotoxicity): 40% |
| CCc1cnn2c(NCc3ccc[n+]([O-])c3)cc(N3CCCC[C@H]3CCO)nc12 [Dinaciclib, dinaciclib] |  | did not decrease any of the other genes tested; also recorded: increased HLA-C, ISG15, and MX1 |  | 4 | 4 | 100% | 117% |  | 100% |  |  | common adverse events [3]: leukopenia, thrombocytopenia, gastrointestinal symptoms, alopecia, and fatigue; increase of ISG15 mRNA (ISG15): ~ 3.3 fold; increase of MX1 mRNA (MX1): ~ 3.3 fold; increase of HLA-C mRNA (HLA-C): ~ 3.3 fold |
| CS[C@H]1SC[C@H]2C(=O)N(C)[C@@H](C(C)C)C(=O)OC[C@@H](NC(=O)c3cnc4ccccc4n3)C(=O)N[C@@H](C)C(=O)N(C)[C@@H]1C(=O)N(C)[C@@H](C(C)C)C(=O)OC[C@@H](NC(=O)c1cnc3ccccc3n1)C(=O)N[C@@H](C)C(=O)N2C [Echinomycin, echinomycin] | > 99% | normalized all genes |  | 4 | 4 | 120% | 112% | 0.0041 µM | 100% | 0.006 µM | 0.003 µM | adverse effects in Phase I clinical trial [4]: nausea, vomiting, reversible liver enzyme abnormalities, and allergic reactions; hill slope [2]: ultrasensitive |
| CCN(CC)Cc1ccc2cc(COC(=O)Nc3ccc(C(=O)NO)cc3)ccc2c1 [Givinostat HCl, Givinostat] | 70–80% | normalized HLA-A and -B to DMSO levels |  | −3 | −3 | 100% | 100% | 0.26 µM | 82% | 1.8 µM | 4.1 µM | decrease of ISGs (IFIT1, ISG15, MX1) (HLA and ISG genes; [14]): ~ 90%; safety signal at higher doses [5]: platelet count decrease; Cell count Efficacy at highest concentration (C25cl48 cells): (25) %; CTG Efficacy at highest concentration (HLA-B HiBit cells): (18) % |
| COc1cccc2c1C(=O)c1c(O)c3c(c(O)c1C2=O)C[C@@](O)(C(=O)CO)C[C@@H]3O[C@H]1C[C@H](N2CCO[C@H](OC)C2)[C@H](O)[C@H](C)O1 [Nemorubicin, nemorubicin] | > 99% | normalized all genes |  | 4 | 4 | 107% | 133% | 0.07 µM | 100% | 0.104 µM | 0.092 µM |  |
| Cc1[nH]c2ccccc2c1CCNCc1ccc(/C=C/C(=O)NO)cc1 [Panobinostat, panobinostat] | 70–80% |  |  | 4 | −3 | 111% | 68% | 0.028 µM | 86% | 0.04 µM | 0.029 µM | decrease of all genes tested except HLA-A (HLA and ISG genes; [14]): ~ 80%; effect on HLA-A mRNA (HLA-A): no effect; potency relative to givinostat at inhibiting IFN-β-MHC class I pathway [2]: 45 x; CTG Efficacy at highest concentration (HLA-B HiBit cells): (25) % |
| C[C@]12C=CC(=O)C=C1CC[C@@H]1[C@@H]2[C@@H](O)C[C@@]2(C)[C@H]1CC[C@]2(O)C(=O)CO [Prednisolone] |  | increased ISG15 and MX1 |  | 4 | 4 | 31% | 14% |  |  | 0.043 µM | 0.03 µM | increase of ISG15 mRNA (ISG15): ~ 3.4 fold; increase of MX1 mRNA (MX1): ~ 3.4 fold |
| N#CC[C@H](C1CCCC1)n1cc(-c2ncnc3[nH]ccc23)cn1 [Ruxolitinib, ruxolitinib] |  |  | 100% | 4 | 4 | 100% | 115% | 0.88 µM |  | 1.2 µM | 1.6 µM | IC50 (HLA-ABC; 48 h, read-out: IC50, HLA-ABC+ cells control titration): 3.5 µM; IC50 ([1]; Homo sapiens, 24 h, read-out: HiBit IC50): 1.1 µM; IC50 ([1]; Homo sapiens, 24 h, read-out: IC50, HiBit control titration): 0.34 ± 0.036 µM; phosphorylation of STAT1 (STAT1): prevented phosphorylation of STAT1; cell count response in control titrations (C25cl48 cells; C25cl48 cells, 48 hrs): bell shaped viability curve; IC50 [6]: 0.282 ± 0.054 µM; CTG viability response in control titrations (HLA-B HiBit cells; HLA-B HiBit cells, 24 hrs): slight bell-shaped curve |
| C[C@@H]1CCN(C(=O)CC#N)C[C@@H]1N(C)c1ncnc2[nH]ccc12 [Tofacitinib, tofacitinib] |  |  | 100% | 4 | 4 | 100% | 83% |  |  |  |  | phosphorylation of STAT1 (STAT1): prevented phosphorylation of STAT1 |
| CC(C)[C@]12O[C@H]1[C@@H]1O[C@@]13[C@@]1(C)CCC4=C(COC4=O)[C@@H]1C[C@@H]1O[C@@]13C2=O [Triptonide, triptonide] | > 99% | normalized all genes | 100% | 4 | 4 |  |  |  |  |  |  | Immunofluorescence Curve class (HLA-ABC; [7]): −1a; Immunofluorescence Efficacy (HLA-ABC; [7]): 100%; HiBit Curve class ([1]; HLA-B HiBit clone AB-7 cells, 4.0 ng/ml IFN-β plus compound titration, 24 hours): −1a; IC50 [1, 9]: 0.047 µM; Average Curve class [2, 10]: −1a; Average Efficacy [2, 10]: 104%; hill slope [2]: ultrasensitive; IC50 [2, 10]: 0.246 µM; RT-qPCR Curve class (HLA-B mRNA; [11]): −1a; RT-qPCR Efficacy (HLA-B mRNA; [11]): 113%; IC50 (HLA-B mRNA; [11]): 0.5 µM |
| CC(C)[C@]12O[C@H]1[C@@H]1O[C@]13[C@]1(O[C@H]1C[C@H]1C4=C(CC[C@@]13C)C(=O)OC4)[C@@H]2O [triptolide] |  |  |  |  |  |  |  |  |  |  |  | hill slope [2]: ultrasensitive |
